According to paper PMC5371824, “Phosphatidylinositol (4,5)-bisphosphate dynamically regulates the K2P background K^+ channel TASK-2” (Scientific Reports, 2017):
Positions count from the first letter of the chain named.

Columns and labels:
Format in all cases: biochemical
[1] = molecular target: T1, TASK-2-K254C (Mus musculus, UniProt F6V9U5, K254C); assay: Excised inside-out patch recording, TASK-2-K254C mutant; design: key to MTSET effect: ✓ under “MTSET effect” indicates a significant increase in current after treatment with the methanesulfonate reagent; — in all cases stands for no significant effect
T1 construct: expressed in transfected cells; host or cells: HEK-293
T1 sequence (F6V9U5 1-502 K254C): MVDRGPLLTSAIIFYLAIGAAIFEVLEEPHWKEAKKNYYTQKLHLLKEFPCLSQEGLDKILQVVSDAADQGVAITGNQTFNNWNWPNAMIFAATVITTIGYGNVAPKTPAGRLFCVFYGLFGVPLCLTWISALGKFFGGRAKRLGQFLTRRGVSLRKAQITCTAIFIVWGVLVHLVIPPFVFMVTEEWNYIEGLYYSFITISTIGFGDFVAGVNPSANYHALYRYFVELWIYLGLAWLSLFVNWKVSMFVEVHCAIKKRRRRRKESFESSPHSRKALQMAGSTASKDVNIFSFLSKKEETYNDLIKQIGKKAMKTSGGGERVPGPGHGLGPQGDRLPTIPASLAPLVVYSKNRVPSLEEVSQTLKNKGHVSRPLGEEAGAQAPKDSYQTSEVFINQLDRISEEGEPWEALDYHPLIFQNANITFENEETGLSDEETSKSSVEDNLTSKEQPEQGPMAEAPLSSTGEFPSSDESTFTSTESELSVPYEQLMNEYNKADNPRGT
Experimental: Figure 6 Scanning of potential sites of interaction of TASK-2 with PI(4,5)P2 by cysteine mutagenesis of intracellular basic residues. (A) Schematic representation of TASK-2 topology showing the sequences of segments of the protein predicted to be intracellular or intracellular-facing. Basic residues are highlighted in red. (B) Recording from an excised inside-out patch of membrane taken from a HEK-293 cell over-expressing TASK-2. The patch was held at −60 mV in the presence of 1 mM ATP. At the intervals indicated by the boxes the intracellular aspect of the membrane was exposed to 300 μM Neomycin and then to 100 μM TPeA. At the end of the TPeA period the patch was additionally exposed to 1 mM MTSET as shown by the black box. (C and D) experiments as in (B), but with inside-out membrane patches obtained from cells expressing the mutants TASK-2-H327C and TASK-2-K297C respectively. In D the reducing agent DTT was also added at 2 mM. (E) Summary of experiments comparing the current before and after treatment with MTSET. […]
(§1) Recordings in the inside-out isolated patch configuration were performed in the gap-free mode at −60 mV. […] Traces shown are prints from crude Clampfit screen shots and quantification was done using the average currents were calculated at intervals using Clampfit after baseline adjustment.

[2] = molecular target: T2, TASK-2-K297C (Mus musculus, UniProt F6V9U5, K297C); assay: Excised inside-out patch recording, TASK-2-K297C mutant; design: key to MTSET effect: ✓ under “MTSET effect” indicates a significant increase in current after treatment with the methanesulfonate reagent; — in all cases stands for no significant effect
T2 construct: expressed in transfected cells; host or cells: HEK-293
T2 sequence (F6V9U5 1-502 K297C): T1 sequence (F6V9U5 1-502 K254C) with C254K, K297C
Experimental: Figure 6 Scanning of potential sites of interaction of TASK-2 with PI(4,5)P2 by cysteine mutagenesis of intracellular basic residues. (A) Schematic representation of TASK-2 topology showing the sequences of segments of the protein predicted to be intracellular or intracellular-facing. Basic residues are highlighted in red. (B) Recording from an excised inside-out patch of membrane taken from a HEK-293 cell over-expressing TASK-2. The patch was held at −60 mV in the presence of 1 mM ATP. At the intervals indicated by the boxes the intracellular aspect of the membrane was exposed to 300 μM Neomycin and then to 100 μM TPeA. At the end of the TPeA period the patch was additionally exposed to 1 mM MTSET as shown by the black box. (C and D) experiments as in (B), but with inside-out membrane patches obtained from cells expressing the mutants TASK-2-H327C and TASK-2-K297C respectively. In D the reducing agent DTT was also added at 2 mM. (E) Summary of experiments comparing the current before and after treatment with MTSET.
Mus musculus TASK-2 (GenBank accession No. AF319542) plasmid was that obtained from mouse kidney. The cDNAs was subcloned into the pCR3.1 vector. Mutations were made by site-directed mutagenesis into the pCR3.1 vector as previously described[69] and confirmed by sequencing. HEK-293 cells were cultured in Dulbecco’s modified Eagle’s medium (DMEM) and F12 Ham’s medium at a 1:1 ratio and supplemented with 10% fetal calf serum at 37 °C in 5% CO2. For electrophysiological experiments, transient transfections were performed by electroporation, using CD8 cotransfection to identify effectively transfected cells. […] Experiments were performed 4–8 h after electroporation. […]
as §1

[3] = molecular target: T3, TASK-2 (Mus musculus, UniProt F6V9U5); assay: Excised inside-out patch recording from HEK-293 cells over-expressing TASK-2; details: 1 mM, inside-out patch
T3 construct: expressed in transfected cells; host or cells: HEK-293
T3 sequence (F6V9U5 1-502): T1 sequence (F6V9U5 1-502 K254C) with C254K
Experimental: Recordings in the inside-out isolated patch configuration were performed in the gap-free mode at −60 mV. The inside aspect of the patch was bathed with a solution containing in mM: 10 KCl, 10 Glucose, 1 MgCl2, 10 EGTA, 1 Na3ATP, 0.1 GTP, 6.8 g/100 ml Sucrose, 10 Hepes/Tris, pH 7.4. The pipette contained in mM: 140 KCl, 10 Glucose, 6.8 g/100 ml Sucrose, 10 Hepes/Tris pH 7.4. For isolated patches, borosilicate capillaries (Harvard Apparatus GC150F-10 1.5 ODx0.86 ID) were fire polished to 4–5 MΩ and covered in beeswax. Acquisition was at 10 kHz with filter at 3 kHz (4-pole Bessel) and analysis was done with Clampfit 9.0 (Axon Instruments, Foster City, CA, USA). Traces shown are prints from crude Clampfit screen shots and quantification was done using the average currents were calculated at intervals using Clampfit after baseline adjustment.

[4] = 1 mM, in the presence of TPeA, inside-out patch

Effect of MTSET on TASK-2-K254C activity [1, 4]: significantly activated
MTSET effect ([1]; mutation K254C): ✓
Effect of MTSET on TASK-2-K297C activity [2, 4]: markedly enhanced
MTSET effect ([2]; mutation K297C): ✓
Effect of MTSET on WT TASK-2 activity ([3]; without TPeA, 1 mM ATP, Fig. S4): markedly reduced
SMILES: C[N+](C)(C)CCSS(C)(=O)=O.[Cl-] [MTSET, [2-(trimethylammonium)ethyl] methanethiosulfonate chloride]
Effect of MTSET on WT TASK-2 channel activity ([3]; brief intracellular exposure in the presence of TPeA): Neither WT nor H327C channel activity is affected
